The subject of data set [1] is Colorectal carcinoma Colon cancer (HCT-116). The experiment in a line: cells. It is filed as cell-based, human. As to conditions: for IC50: Homo sapiens; for relative activity for colon carcinoma cells (HCT-116), in words: among all compounds. The text has this:
(§1) Finally, all the studied phosphonate compounds have moderate to weak cytotoxicity activity on the normal cell WI-38.
(§2) The in vitro antitumor activity of the compounds under study in this research was investigated cell growth using the MTT assay, [31]. The human tumor cell lines that used to evaluate the activity are Human lung fibroblast (WI38), Colorectal carcinoma Colon cancer (HCT-116) and Epdermoid Carcinoma (HEP2). The MTT assay is a standard colorimetric assay that is used to measure cell growth. It is used to determine cytotoxicity of potential medicinal agents and other toxic materials. Detailed procedures for the MTT assay method is presented in the supporting information (Sect. S2). […]
(§3) Cytotoxicity Assay (Section S2)
(§4) The cell lines Human lung fibroblast (WI38), Colorectal carcinoma Colon cancer (HCT-116) and Epdermoid Carcinoma (HEP2) were used to determine the inhibitory effects of compounds on cell growth using the MTT assay. This colorimetric assay is based on the conversion of the yellow tetrazolium bromide (MTT) to a purple formazan derivative by mitochondrial succinate dehydrogenase in viable cells. Cell lines were cultured in RPMI-1640 medium with 10% fetal bovine serum. Antibiotics added were 100 units/ml penicillin and 100µg/ml streptomycin at 37 C in a 5% Co2 incubator. The cell lines were seedes in a 96-well plate at a density of 1.0x10^4 cells/well.
(§5) At 37 C for 48 h under 5% CO2. After incubation the cells were treated with different concentration of compounds and incubated for 24 h. After 24 h of drug treatment, 20 µl of MTT solution at […]
(§6) 5mg/ml was added and incubated for 4 h. Dimethyl sulfoxide (DMSO) in volume of 100 µl is added into each well to dissolve the purple formazan formed. The colorimetric assay is measured and recorded at absorbance of 570 nm using a plate reader (EXL 800, USA). The relative cell viability in percentage was calculated as (A570 of treated samples/A570 of untreated sample) X 100.

For data set [2], the system named is Human lung fibroblast normal cell line (WI38). The data set is described as follows: cells. Format: cell-based.
Description: as §1, §2, §3, §4, §5, §6

In data set [3] the test system is Epdermoid Carcinoma (HEP2). Format: cell-based, human. As to conditions: among all compounds.
Description: as §2, §3
The cell lines Human lung fibroblast (WI38), Colorectal carcinoma Colon cancer (HCT-116) and Epdermoid Carcinoma (HEP2) were used to determine the inhibitory effects of compounds on cell growth using the MTT assay. This colorimetric assay is based on the conversion of the yellow tetrazolium bromide (MTT) to a purple formazan derivative by mitochondrial succinate dehydrogenase in viable cells. Cell lines were cultured in RPMI-1640 medium with 10% fetal bovine serum. […]
5mg/ml was added and incubated for 4 h. […] The colorimetric assay is measured and recorded at absorbance of 570 nm using a plate reader (EXL 800, USA). The relative cell viability in percentage was calculated as (A570 of treated samples/A570 of untreated sample) X 100.

Setting [4] is: HCT-116, Figure 4, unit inferred, read-out: IC50 against colon carcinoma cells (HCT-116).
Where [5] appears, read: WI-38, Figure 6, unit inferred, read-out: IC50 against normal cell line (WI38).
The mark [6] stands for this setting: HCT-116, read-out: IC50 against colon carcinoma cells (HCT-116).
The mark [7] stands for this setting: WI-38, read-out: IC50 against normal cell line (WI38).

The structures appear in SMILES notation. Like-named read-outs stand apart in the source and are kept apart here.

Experimental findings from PMC10482913, “A new class of anticancer activity with computational studies for a novel bioactive aminophosphonates based on pyrazole moiety” (Scientific Reports, 2023) are described below.

As a reminder, the melting point is the temperature, or range, at which the solid turns liquid. As usually defined, the IC50 is the concentration needed to halve the response being measured. Take `CCOP(=O)(OCC)C(Nc1cc(-c2ccc([N+](=O)[O-])cc2)nn1-c1ccccc1)c1cccc(O)c1` (stereo not drawn) [Compound 2b, Diethyl{(3-(4-nitrophenyl)-1-phenyl-1H-pyrazol-5-ylamino)(3-hydroxyphenyl)}methylphosphonate]: the melting point lay in the range of 252 to 254 °C. Also, the IC50 in data set [1] (setting [4]) stood at 84.5 µM. For the same molecule, in data set [2] (setting [5]), the IC50 worked out at 55.7 µM.
`CCOP(=O)(OCC)C(Nc1cc(-c2ccc([N+](=O)[O-])cc2)nn1-c1ccccc1)c1ccc([N+](=O)[O-])cc1` (stereo not drawn) [Compound 2d, Diethyl{(3-(4-nitrophenyl)-1-phenyl-1H-pyrazol-5-ylamino)(4-nitrophenyl)}methylphosphonate] had a melting point of 234 to 235 °C. In data set [1] (setting [4]), the IC50 was determined as 19.9 µM. Moreover, in data set [1], the “relative activity for colon carcinoma cells (HCT-116), in words” value is reported as “strongest activity”. The half-inhibitory concentration (IC50) in data set [2] (setting [5]) came to 41.9 µM.
Take `O=[N+]([O-])c1cccc(C(Nc2cc(-c3ccccc3)nn2-c2ccc([N+](=O)[O-])cc2[N+](=O)[O-])P(=O)(Oc2ccccc2)Oc2ccccc2)c1` (stereo not drawn) [Compound 4c, Diphenyl{(1-(2,4-dinitrophenyl)-3-phenyl-1H-pyrazol-5-ylamino)(3-nitrophenyl)}methyl phosphonate]: the IC50 in data set [1] (setting [6]) was 51.3 µM; in data set [2] (setting [7]), greater than 100 µM.
The molecule `CCOP(=O)(OCC)C(Nc1cc(-c2ccccc2)nn1-c1ccc([N+](=O)[O-])cc1[N+](=O)[O-])c1ccc(N(C)C)cc1` (stereo not drawn) [Compound 2f, Diethyl{(1-(2,4-dinitrophenyl)-3-phenyl-1H-pyrazol-5-ylamino)(4-N,Ndimethylaminophenyl)} methyl phosphonate] showed a melting point of 244 to 246 °C. Besides, in data set [1] (setting [4]), the IC50 was found to be 37.8 µM. Also, in data set [2] (setting [5]), the IC50 was 65.1 µM.
`O=[N+]([O-])c1ccc(-c2cc(NC(c3ccc([N+](=O)[O-])cc3)P(=O)(Oc3ccccc3)Oc3ccccc3)n(-c3ccccc3)n2)cc1` (stereo not drawn) [Compound 4b, Diphenyl{(3-(4-nitrophenyl)-1-phenyl-1H-pyrazol-5-ylamino)(4-nitrophenyl)}methylphosphonate] returned a melting point of 167 to 168 °C. For the same molecule, the IC50 in data set [1] (setting [6]) is 15.1 µM. Besides, the “relative activity for colon carcinoma cells (HCT-116), in words” value in data set [1] is given as “strongest activity”. Besides, the IC50 in data set [2] (setting [7]) is 62.8 µM. The “relative activity for Epdermoid Carcinoma (HEP2), in words” value in data set [3] was “highest activity”.
In turn, `O=[N+]([O-])c1ccc(-c2cc(NC(c3cccc(O)c3)P(=O)(Oc3ccccc3)Oc3ccccc3)n(-c3ccccc3)n2)cc1` (stereo not drawn) [Compound 4a, Diphenyl{(3-(4-nitrophenyl)-1-phenyl-1H-pyrazol-5-ylamino)(3-hydroxyphenyl)}methylphosphonate] registered a melting point of 266 to 268 °C. Also, the IC50 in data set [1] (setting [6]) turned out to be 73.2 µM. Further, in data set [2] (setting [7]), the IC50 was found to be 47.1 µM.
`CCOP(=O)(OCC)C(Nc1cc(-c2ccc([N+](=O)[O-])cc2)nn1-c1ccccc1)c1ccc(Cl)cc1` (stereo not drawn) [Compound 2e, Diethyl{(3-(4-nitrophenyl)-1-phenyl-1H-pyrazol-5-ylamino)(4-chlorophenyl)}methylphosphonate] showed a melting point of 298 to 300 °C. Also, the 50% inhibitory concentration (IC50) in data set [1] (setting [4]) was determined as 57.3 µM. Also, the IC50 in data set [2] (setting [5]) is 86.3 µM.
`CN(C)c1ccc(C(Nc2cc(-c3ccccc3)nn2-c2ccc([N+](=O)[O-])cc2[N+](=O)[O-])P(=O)(Oc2ccccc2)Oc2ccccc2)cc1` (stereo not drawn) [Compound 4d, Diphenyl{(1-(2,4-dinitrophenyl)-3-phenyl-1H-pyrazol-5-ylamino)(4-N,N-dimethylaminophenyl)} methyl phosphonate] showed a melting point of 212 to 214 °C. For the same molecule, the IC50 in data set [1] (setting [6]) was 26.1 µM. Moreover, the IC50 in data set [2] (setting [7]) came out at 78.3 µM. Moreover, in data set [3], the “relative activity for Epdermoid Carcinoma (HEP2), in words” value is “highest activity”.
The molecule `CCOP(=O)(OCC)C(Nc1cc(-c2ccc([N+](=O)[O-])cc2)nn1-c1ccccc1)c1cccc(Cl)c1` (stereo not drawn) [Compound 2c, Diethyl{(3-(4-nitrophenyl)-1-phenyl-1H-pyrazol-5-ylamino)(3-chlorophenyl)}methylphosphonate] displayed a melting point of 150 to 152 °C. Also, in data set [1] (setting [4]), the IC50 was determined as 45.7 µM. Besides, the IC50 in data set [2] (setting [5]) is 29.7 µM.
